# Experimental data: US9328374B2, “Selective culture medium and method for detecting carbapenem-resistant bacteria in a test sample” (Institut National de la Sante et de la Recherche Medicale …, priority 2011, dated 2016)
# Key:
# E. coli = assay: MIC of imipenem, ertapenem and meropenem; format: cell-based, Escherichia coli
# C. freundii = assay: MIC of imipenem, ertapenem and meropenem; format: cell-based, Citrobacter freundii
# C. koseri = assay: MIC of imipenem, ertapenem and meropenem; format: cell-based
# E. cloacae = assay: MIC of imipenem, ertapenem and meropenem; format: cell-based, Enterobacter cloacae
# enterobacterial isolates = assay: MIC of imipenem, ertapenem and meropenem (groups of isolates, other species); format: cell-based, Enterobacteriaceae
compound,measurement,setting,value
"C[C@@H](O)[C@H]1C(=O)N2C(C(=O)O)=C(S[C@@H]3CN[C@H](C(=O)N(C)C)C3)[C@H](C)[C@H]12 [MEM, meropenem]",MIC,"E. coli; strain E. coli 10121, CTX-M-2, non-carbapenemase producer",0.016 µg/mL
same,MIC,"E. coli; strain E. coli AME, OXA-48 + CTX-M-24",0.19 µg/mL
same,MIC,"E. coli; strain E. coli BON, OXA-48 + TEM-1 + CTX-M-24",0.19 µg/mL
same,MIC,"E. coli; strain E. coli ECA, ACC-1, non-carbapenemase producer",0.012 µg/mL
same,MIC,"E. coli; strain E. coli EVB, VEB-1, non-carbapenemase producer",0.012 µg/mL
same,MIC,"E. coli; strain E. coli FOR, CTX-M-15, non-carbapenemase producer",0.012 µg/mL
same,MIC,"E. coli; strain E. coli HB4, (OmpC-, OmpF-), non-carbapenemase producer",0.25 µg/mL
same,MIC,"E. coli; strain E. coli JAP, IMP-1",0.5 µg/mL
same,MIC,"E. coli; strain E. coli MAR, Overexpressed AmpC, non-carbapenemase producer",2 µg/mL
same,MIC,"E. coli; strain E. coli MET, Chromosome-encoded extended-spectrum cephalosporinase, non-carbapenemase producer",0.012 µg/mL
same,MIC,"E. coli; strain E. coli ROB, OXA-48",0.25 µg/mL
same,MIC,"E. coli; strain E. coli SYD, CMY-2, non-carbapenemase producer",0.012 µg/mL
same,MIC,"C. freundii; C. freundii 1003, CTX-M-15 + TEM-1, non-carbapenemase producer",0.023 µg/mL
same,MIC,C. freundii; C. freundii 7767 (wild type),0.016 µg/mL
same,MIC,"C. freundii; C. freundii 7767, (wild type), non-carbapenemase producer",0.016 µg/mL
same,MIC,C. freundii; C. freundii 10107 (TEM-1 + SHV-12),0.023 µg/mL
same,MIC,"C. freundii; C. freundii 10107, TEM-1 + SHV-12, non-carbapenemase producer",0.023 µg/mL
same,MIC,C. freundii; C. freundii 10135 (CTX-M-15),0.023 µg/mL
same,MIC,"C. freundii; C. freundii 10135, CTX-M-15, non-carbapenemase producer",0.023 µg/mL
same,MIC,C. freundii; C. freundii MAU (Overexpressed AmpC + TEM-3),1 µg/mL
same,MIC,"C. freundii; C. freundii MAU, Overexpressed AmpC + TEM-3, non-carbapenemase producer",1 µg/mL
same,MIC,C. freundii; C. freundii STE (NDM-1 + OXA-1 + OXA-9 + OXA-10 + CTX-M-15 + TEM-1),>32 µg/mL
same,MIC,"C. freundii; C. freundii STE, NDM-1 + TEM-1 + CTX-M-15 + VIM-4 + OXA-1 + OXA-9 + OXA-10 + OXA-181",>32 µg/mL
same,MIC,"C. freundii; strain C. freundii 10107, TEM-1 + SHV-12, non-carbapenemase producer",0.023 µg/mL
same,MIC,"C. freundii; strain C. freundii 10135, CTX-M-15, non-carbapenemase producer",0.023 µg/mL
same,MIC,"C. freundii; strain C. freundii MAU, Overexpressed AmpC + TEM-3, non-carbapenemase producer",1 µg/mL
same,MIC,"C. koseri; C. koseri ROU, OXA-48",0.38 µg/mL
same,MIC,C. koseri; C. koseri VER (OXA-48),0.38 µg/mL
same,MIC,"C. koseri; C. koseri VER, OXA-48",0.38 µg/mL
same,MIC,"C. koseri; strain C. koseri VER, OXA-48",0.38 µg/mL
same,MIC,"E. cloacae; E. cloacae 501, OXA-48 + TEM-1 + CTX-M-15",1.5 µg/mL
same,MIC,"E. cloacae; E. cloacae 1012, TEM-1 + SHV-12, non-carbapenemase producer",0.016 µg/mL
same,MIC,"E. cloacae; E. cloacae 1019, TEM-1, non-carbapenemase producer, overexpressed AmpC",0.094 µg/mL
same,MIC,"E. cloacae; E. cloacae 1027, TEM-1 + CTX-M-15, non-carbapenemase producer",0.016 µg/mL
same,MIC,"E. cloacae; E. cloacae 1072, TEM-1 + OXA-1, non-carbapenemase producer, overexpressed AmpC",0.064 µg/mL
same,MIC,E. cloacae; E. cloacae 5434 (wild type),0.032 µg/mL
same,MIC,"E. cloacae; E. cloacae 5434, (wild type), non-carbapenemase producer",0.032 µg/mL
same,MIC,"E. cloacae; E. cloacae 7725, (wild type), non-carbapenemase producer",0.012 µg/mL
same,MIC,"E. cloacae; E. cloacae 7746, (wild type), non-carbapenemase producer",0.032 µg/mL
same,MIC,E. cloacae; E. cloacae 10111 (TEM-1 + CTX-M-15),0.094 µg/mL
same,MIC,"E. cloacae; E. cloacae 10111, TEM-1 + CTX-M-15, non-carbapenemase producer, overexpressed AmpC",0.094 µg/mL
same,MIC,"E. cloacae; E. cloacae 1008029, VIM-1+ CTX-M-3",>32 µg/mL
same,MIC,"E. cloacae; E. cloacae 1008079, IMP-1",>32 µg/mL
same,MIC,"E. cloacae; E. cloacae 1008187, IMP-1 + CTX-M-15",4 µg/mL
same,MIC,E. cloacae; E. cloacae (KPC-2),2 µg/mL
same,MIC,E. cloacae; E. cloacae ARF (overexpressed AmpC),0.12 µg/mL
same,MIC,"E. cloacae; E. cloacae ARF, Overexpressed AmpC, non-carbapenemase producer",0.12 µg/mL
same,MIC,E. cloacae; E. cloacae AZA (overexpressed AmpC),0.12 µg/mL
same,MIC,"E. cloacae; E. cloacae AZA, Overexpressed AmpC, non-carbapenemase producer",0.12 µg/mL
same,MIC,"E. cloacae; E. cloacae BEU, OXA-48 + TEM-1 + CTX-M-15 + SHV-12",0.5 µg/mL
same,MIC,E. cloacae; E. cloacae BLA (overexpressed AmpC),0.12 µg/mL
same,MIC,"E. cloacae; E. cloacae BLA, Overexpressed AmpC, non-carbapenemase producer",0.12 µg/mL
same,MIC,"E. cloacae; E. cloacae CFVL, KPC-2 + TEM-3",1 µg/mL
same,MIC,E. cloacae; E. cloacae CLO (CTX-M-15),0.12 µg/mL
same,MIC,"E. cloacae; E. cloacae CLO, CTX-M-15, non-carbapenemase producer",0.12 µg/mL
same,MIC,E. cloacae; E. cloacae CON (overexpressed AmpC),0.12 µg/mL
same,MIC,"E. cloacae; E. cloacae CON, Overexpressed AmpC, non-carbapenemase producer",0.25 µg/mL
same,MIC,E. cloacae; E. cloacae CVB (VEB-1),0.12 µg/mL
same,MIC,"E. cloacae; E. cloacae CVB, VEB-1, non-carbapenemase producer",0.12 µg/mL
same,MIC,"E. cloacae; E. cloacae HMG, KPC-2 + TEM-1",16 µg/mL
same,MIC,E. cloacae; E. cloacae HPTU (KPC-2 + TEM-1 + SHV-11),1.5 µg/mL
same,MIC,"E. cloacae; E. cloacae HPTU, KPC-2 + TEM-1 + SHV-11",1.5 µg/mL
same,MIC,E. cloacae; E. cloacae IR38 (NDM-1 + CTX-M-15),2 µg/mL
same,MIC,"E. cloacae; E. cloacae IR38, NDM-1 + CTX-M-15",2 µg/mL
same,MIC,"E. cloacae; E. cloacae KAR, VIM-1+ SHV-70",0.5 µg/mL
same,MIC,E. cloacae; E. cloacae TAW (IMP-8 + SHV-12),0.5 µg/mL
same,MIC,"E. cloacae; E. cloacae TAW, IMP-8 + SHV-12",0.5 µg/mL
same,MIC,E. cloacae; E. cloacae TUR (OXA-48 + SHV-5),0.5 µg/mL
same,MIC,"E. cloacae; E. cloacae TUR, OXA-48 + SHV-5",0.5 µg/mL
same,MIC,"E. cloacae; E. cloacae TWA, IMP-8",1 µg/mL
same,MIC,"E. cloacae; strain E. cloacae 10111, TEM-1 + CTX-M-15, non-carbapenemase producer",0.094 µg/mL
same,MIC,"E. cloacae; strain E. cloacae BLA, Overexpressed AmpC, non-carbapenemase producer",0.12 µg/mL
same,MIC,"E. cloacae; strain E. cloacae CLO, CTX-M-15, non-carbapenemase producer",0.12 µg/mL
same,MIC,"E. cloacae; strain E. cloacae CON, Overexpressed AmpC, non-carbapenemase producer",0.12 µg/mL
same,MIC,"E. cloacae; strain E. cloacae CVB, VEB-1, non-carbapenemase producer",0.12 µg/mL
same,MIC,"E. cloacae; strain E. cloacae HPTU, KPC-2 + TEM-1 + SHV-11",1.5 µg/mL
same,MIC,"E. cloacae; strain E. cloacae TAW, IMP-8 + SHV-12",0.5 µg/mL
same,MIC,"E. cloacae; strain E. cloacae TUR, OXA-48 + SHV-5",0.5 µg/mL
same,MIC,"enterobacterial isolates; S. marcescens 0911033, IMP-1",>32 µg/mL
same,MIC,"enterobacterial isolates; S. marcescens 1008091, VIM-1+ CTX-M-15",>32 µg/mL
same,MIC,"enterobacterial isolates; S. marcescens C7052, KPC-2 + TEM-1 + SHV-12",>32 µg/mL
same,MIC,"enterobacterial isolates; S. marcescens D6403, KPC-2 + TEM-1",>32 µg/mL
